The values below come from paper PMC6274061, “Inhibition of Urease by Disulfiram, an FDA-Approved Thiol Reagent Used in Humans” (Molecules, 2016).

Assay [1] deals with Citrullus vulgaris urease (CVU). Kind of assay: Inhibition of CVU urease activity after 1 h incubation with inhibitor (phenol red assay). It is filed as biochemical. The conditions noted are these: for IC50: CVU incubated 1 h at 37 °C with inhibitor, 2 mM urea, pH 6.8; for Plateau (% of Initial): residual activity at plateau from the fit, 1 h at 37 °C. How it is done:
(§1) The specific ureolytic activity was assayed spectrophotometrically at 37 °C in a Fluostar Omega (BMG LABTECH Inc, Cary, NC, USA) spectrometer. The reaction was monitoring by the increase of ammonia concentration following the absorbance at 558 nm by The Phenol Red Assay, taking similar considerations as the one described elsewhere. The standard urease test consisted in 0.3 mL of reaction buffer: 0.5 mM MES, 0.016 mM phenol red, and 50 mM urea, at pH 6.8. All assays were initiated by the addition of the enzyme (≈0.6 ng/mL). Initial velocity rates were determined from the initial linear portion of the reaction course-times. Saturation kinetics experiments were performed under the same conditions, except that different concentrations of urea were used (0.5 to 50 mM), and data were fitted to Michaelis-Menten model (Equation (1)). All experiments presented were reproduced at least three times.
To evaluate the saturation of CVU with inhibitors, enzyme was incubated for one hour at 37 °C with different concentrations of inhibitors in the standard reaction mixture, the reactions were started by the addition of urea to a final concentration of 2 mM, followed by the measurement of the residual activity. Percentages of residual activity were plotted against inhibitor concentration. Since two types of behavior were observed, two different equations were used to fit the data. In one case, we observed a trend that produced a full loss of activity (Equation (3)), and in the other case a partial inhibition is observed, meaning that at enzyme saturation activity value is non-zero (Equation (4)).
Equation (3): Full-Inhibition Saturation Kinetics, (3) residual activity (%) = A0 IC50h/IC50h+[I]^h where h, is the Hill coefficient; IC50 is the apparent inhibition constant; [I], is the inhibitor concentration. Residual activity and A0 is the same as in Equation (2).
Equation (4): Partially-Inhibition Saturation Kinetics, (4) residual activity (%)= A0 IC50h/IC50h+[I]^h+plateau where parameters and variables are same as in Equation (3), with the difference that a plateau is included.
Inhibition of CVU by Aldrithiol (2,2′-dipyridyl disulphide, here in after called DPS for dipyridine sulfide), captopril ((S)-1-(3-Mercapto-2-methyl-1-oxopropyl)-L-proline), bithionol (2,2′-Sulfanediylbis(4,6-dichlorophenol)) and quercetin were performed in a similar manner as for inhibition experiments with DSF. These inhibitors were purchased from Sigma-Aldrich (Toluca, Mexico). Inhibition kinetics data were fitted to the indicated equation. The protection of the activity by a given inhibitor (called I2), at a concentration equal to the IC50 value, over the inhibition produced by DPS was monitored measuring changes in initial velocity and plotting the percentage of inhibition for each treatment and expressed as mean ± SEM. Student t test was used to estimate statistical significance. Measurements of variance were performed using a one-way ANOVA. Differences were considered significant when p was less than 0.05. All experiments were performed at least three times, and in all cases the SEM justifies the accuracy of the values, except in the case of inhibition kinetics of bithionol and quercetin in which SEM is higher than 10% of the estimated value.

For assay [2] the test system is unchanged. Kind of assay: Time courses of inactivation of CVU pre-incubated with DSF. It is filed as biochemical. The note with it: 37 °C. How it is done:
as §1
To evaluate the time and concentration-dependence of the inhibition of urease activity, the initial rates of urea hydrolysis were measured in the standard reaction mixture in the presence of DSF (tetraethylthiuram disulphide), (C2H5)2N(C=S)S–S(S=C)N(C2H5)2, during different incubation periods. DSF was purchased from Sigma-Aldrich (Toluca, Mexico). In these experiments urease reactions were started by the addition of urea to a final concentration of 2 mM. The residual activity in percentage of the initial was plotted against the time of incubation and fitted to an exponential decay equation with a plateau (Equation (2)).
Equation (2): Enzyme inactivation, (2) residual activity = (A0−plateau)(e^−kt)+plateau, where the residual activity is the observed activity upon the inhibition; A0, is the activity observed in the absence of the inhibitor; the plateau, is the value of Y minimum; k, is the observed one phase kinetic constant, and t is the time of incubation. Activity was transformed to percentage, where activity in the absence of DSF is 100%.

For assay [3] the test system is unchanged. Kind of assay: Inhibition pattern: urea saturation kinetics of CVU at fixed/variable DSF concentrations. It is filed as biochemical. How it is done:
as §1, with “three times. For the inhibition pattern urea saturation kinetics experiments were performed at fixed/variable concentrations of DSF and data were globally fitted to Equation (5).” for “three times.”

The target of assay [4] is Citrullus vulgaris urease (CVU). As to the kind of experiment: Binding equilibrium by intrinsic fluorescence quenching. The note with it: 1 h after addition, 37 °C, read-out: DSF dissociation constant (Kd). The procedure: The binding of DSF was monitored after apparent equilibrium by measuring the intrinsic tryptophan fluorescence intensity changes at 37 °C using a spectrometer (Fluostar Omega, BMG). CVU was excited at 290 nm, and fluorescence intensity was recorded at 340 nm after an hour of incubation at 37 °C in the absence or presence of different concentrations of DSF. In order to discard solvent fluorescent changes, a control experiment was performed in which the different volumes of solvent (same as in the titration volumes used in ligand additions) were added to urease. Fluorescence intensity changes were plotted against the DSF concentrations and fitted to […]. Equation (6): Fluorescence binding saturation, (6) ΔIF = Bmax [DSF]/Kd+[DSF] where ΔIF, is the change in fluorescence intensity at 340 nm; Bmax, is the maximum ΔIF and corresponds to the maximum binding; [DSF], is the disulfiram concentration and Kd, is the dissociation constant.

The structures appear in SMILES notation.

As for `Oc1c(Cl)cc(Cl)cc1Sc1cc(Cl)cc(Cl)c1O` [Bithionol, 2,2′-Sulfanediylbis(4,6-dichlorophenol)], in assay [1], half-maximal inhibition (IC50) was put at 376 ± 120 µM and the “Plateau (% of Initial)” value was 34.53 ± 18.23 % of Initial.

Regarding `CC(CS)C(=O)N1CCC[C@H]1C(=O)O` (stereo partly drawn) [Captopril, (S)-1-(3-Mercapto-2-methyl-1-oxopropyl)-L-proline], in assay [1], the IC50 came out at 524 ± 39.6 µM and the “Plateau (% of Initial)” value was 0.00 % of Initial.

For `O=c1c(O)c(-c2ccc(O)c(O)c2)oc2cc(O)cc(O)c12` [Quercetin, quercetin], in assay [1], the IC50 turned out to be 155 ± 10.2 µM and the “Plateau (% of Initial)” value is given as 58.86 ± 1.52 % of Initial.

`CCN(CC)C(=S)SSC(=S)N(CC)CC` [DSF, tetraethylthiuram disulphide]: the “Plateau (% of Initial)” value in assay [1] is reported as 0.00 % of Initial. In assay [2] (50 µM DSF), the “apparent half-life time of inactivation” value is recorded as 13.80 min; the kobs of inactivation is 0.050 ± 0.007 min⁻¹; the “plateau, % of the initial velocity” value is recorded as 63.60% ± 1.40. For the same molecule, in assay [2] (80 µM DSF), the “apparent half-life time of inactivation” value stood at 7.50 min; the kobs of inactivation was 0.092 ± 0.024 min⁻¹; the “plateau, % of the initial velocity” value is 53.48% ± 3.05. Moreover, in assay [3] (Lineweaver–Burk plots of the inhibition pattern), the Inhibition mechanism result is listed as “non-competitive inhibition mechanism”. Moreover, the Ki in assay [3] (global fit to non-competitive inhibition, Equation (5), read-out: Inhibition constant (Ki)) worked out at 67.6 ± 7 µM. Moreover, the Kd in assay [4] is 54.9 ± 3.9 µM.

The IC50 is the concentration at which inhibition is half-maximal. The Ki is a dissociation constant, usually derived from enzyme kinetics or from competition with a known ligand. As usually defined, the Kd is the free concentration of one partner at which half of the binding sites on the other are occupied at equilibrium, for simple one-to-one binding.
